# From US11673876B2, “Substituted aminobenzyl heteroaryl compounds as EGFR and/or PI3K inhibitors” (Mekanistic Therapeutics LLC, priority 2020, dated 2023)
# What was measured:
# PI3Ka = PI3Ka (Homo sapiens (Human), UniProt P42336); test: Z'-LYTE / Adapta kinase assay, PI3Ka; format: biochemical; settings: for inhibition at 0.1 µM: read-out: PI3Ka % Inh. @ 100 nM
# In short: (§1)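 Z'-LYTE FRET-peptide phosphorylation read as coumarin/fluorescein emission ratio (400 nm excitation); Adapta immunoassay detects ADP formation. 60-min kinase reaction, 60-min development, room temperature.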
# DNA-PK = DNA-PK (Homo sapiens (Human), UniProt P78527); test: Z'-LYTE / Adapta kinase assay, DNA-PK; format: biochemical; settings: for inhibition at 0.1 µM: read-out: DNA-PK % Inh. @ 100 nM
# In short: as §1
# [1] = Metabolic stability in human liver microsomes; format: in vitro ADME
# Method: (§2) Working solution: 5 μL of compound and control stock solution (10 mM in dimethyl sulfoxide (DMSO)) were diluted with 495 μL of acetonitrile (ACN) (intermediate solution concentration: 100 μM, 99% ACN)
# (§3) NADPH Cofactor Preparation: NADPH powder: β-Nicotinamide adenine dinucleotide phosphate reduced form, tetrasodium salt; NADPH·4Na. The appropriate amount of NADPH powder was weighed and diluted into a 10 mM MgCl2 solution (working solution concentration: 10 unit/mL; final concentration in reaction system: 1 unit/mL)
# (§4) Liver Microsomes Preparation: The appropriate concentrations of microsome working solutions were prepared in 100 mM potassium phosphate buffer. Cold (4° C.) acetonitrile (ACN) containing 200 ng/mL tolbutamide and 200 ng/mL labetalol as internal standards (1S) was used as the stop solution
# (§5) Assay Procedure: Pre-warm empty ‘Incubation’ plates T60 and NCF60 for 10 minutes. Dilute liver microsomes to 0.56 mg/mL in 100 mM phosphate buffer. Transfer 445 μL microsome working solutions (0.56 mg/mL) into pre-warmed ‘Incubation’ plates T60 and NCF60, Then pre-incubate ‘Incubation’ plates T60 and NCF60 for 10 min at 37° C. with constant shaking. Transfer 54 μL liver microsomes to blank plate, then add 6 μL NAPDH cofactor to blank plate, and then add 180 μL quenching solution to blank plate. Add 5 μL compound working solution (100 μM) into ‘incubation’ plates (T60 and NCF60) containing microsomes and mix 3 times thoroughly.
# (§6) For the NCF60 plate, add 50 μL of buffer and mix 3 times thoroughly. Start timing; plate will be incubated at 37° C. for 60 min while shaking. In ‘Quenching’ plate T0, add 180 μL quenching solution and 6 μL NAPDH cofactor. Ensure the plate is chilled to prevent evaporation. For the T60 plate, mix 3 times thoroughly, and immediately remove 54 μL mixture for the 0-min time point to ‘Quenching’ plate. Then add 44 μL NAPDH cofactor to incubation plate (T60). Start timing; plate will be incubated at 37° C. for 60 min while shaking. At 5, 10, 20, 30, and 60 min, add 180 μL quenching solution to ‘Quenching’ plates, mix once, and serially transfer 60 μL sample from T60 plate per time point to ‘Quenching’ plates. For NCF60: mix once, and transfer 60 μL sample from the NCF60 incubation to ‘Quenching’ plate containing quenching solution at the 60-min time point. All sampling plates are shaken for 10 min, then centrifuged at 4000 rpm for 20 minutes at 4° C. Transfer 80 μL supernatant into 240 μL HPLC water, and mix by plate shaker for 10 min. Each bioanalysis plate was sealed and shaken for 10 minutes prior to LC-MS/MS analysis.
# (§7) The equation of first order kinetics was used to calculate T½ and CLint(mic) (μL/min/mg). Equation of first order kinetics: […]
# (§8) The biological stability of the compounds of the disclosure can be measured by determining its ½ life in the presence microsomes. Presented in Table 5, is the ½ life of selected compounds of the disclosure in the presence of human liver microsomes (HLM) or mouse liver microsomes (MLM) as described above. In Table 5, ½ life is presented as “++++” (value is greater than 60 minutes), “+++” (value is greater than 30 minutes and less than or equal to 60 minutes), “++” (value is greater than 15 minutes and less than or equal to 30 minutes) and “+” (value is 15 minutes or less).
# EGFR = EGFR (Homo sapiens (Human), UniProt P00533); test: Z'-LYTE / Adapta kinase assay, EGFR; format: biochemical; settings: for inhibition at 0.1 µM: read-out: EGFR % Inh. @ 100 nM
# In short: as §1
# [2] = Metabolic stability in mouse liver microsomes; format: in vitro ADME
# Method: as §2, §3, §4, §5, §6, §7, §8
# EGFR, sequence (P00533 25-1210): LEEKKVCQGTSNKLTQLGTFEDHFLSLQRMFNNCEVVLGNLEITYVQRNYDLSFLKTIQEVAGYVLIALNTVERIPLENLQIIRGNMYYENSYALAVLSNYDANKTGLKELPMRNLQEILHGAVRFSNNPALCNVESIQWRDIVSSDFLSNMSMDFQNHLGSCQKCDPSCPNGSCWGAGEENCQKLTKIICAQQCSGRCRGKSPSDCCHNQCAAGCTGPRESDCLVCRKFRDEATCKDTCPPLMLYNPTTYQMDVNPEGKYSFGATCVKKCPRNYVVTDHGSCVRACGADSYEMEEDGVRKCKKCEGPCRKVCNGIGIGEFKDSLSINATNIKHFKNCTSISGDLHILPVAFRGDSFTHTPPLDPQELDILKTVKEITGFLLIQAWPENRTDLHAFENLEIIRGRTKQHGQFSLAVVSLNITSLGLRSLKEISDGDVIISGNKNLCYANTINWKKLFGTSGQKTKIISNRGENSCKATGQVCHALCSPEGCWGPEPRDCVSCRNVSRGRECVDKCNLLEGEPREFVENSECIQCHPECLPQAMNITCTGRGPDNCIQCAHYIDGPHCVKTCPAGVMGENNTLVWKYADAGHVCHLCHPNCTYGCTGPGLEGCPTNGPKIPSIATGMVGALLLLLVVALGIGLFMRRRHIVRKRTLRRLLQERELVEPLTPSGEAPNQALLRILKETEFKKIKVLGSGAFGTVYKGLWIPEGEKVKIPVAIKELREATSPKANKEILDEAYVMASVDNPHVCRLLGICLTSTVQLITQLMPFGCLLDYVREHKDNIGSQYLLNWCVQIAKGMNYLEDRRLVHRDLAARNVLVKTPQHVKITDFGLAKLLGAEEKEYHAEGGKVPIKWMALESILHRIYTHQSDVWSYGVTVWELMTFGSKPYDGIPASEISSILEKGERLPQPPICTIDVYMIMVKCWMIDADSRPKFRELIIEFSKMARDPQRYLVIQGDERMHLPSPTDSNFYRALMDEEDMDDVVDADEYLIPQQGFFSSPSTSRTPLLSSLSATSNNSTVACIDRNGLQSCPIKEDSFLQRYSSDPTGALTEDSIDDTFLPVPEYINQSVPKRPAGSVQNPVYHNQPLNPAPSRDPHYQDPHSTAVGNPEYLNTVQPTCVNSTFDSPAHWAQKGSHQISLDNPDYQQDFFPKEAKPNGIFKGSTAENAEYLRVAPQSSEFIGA
# PI3Ka, sequence (P42336 whole entry): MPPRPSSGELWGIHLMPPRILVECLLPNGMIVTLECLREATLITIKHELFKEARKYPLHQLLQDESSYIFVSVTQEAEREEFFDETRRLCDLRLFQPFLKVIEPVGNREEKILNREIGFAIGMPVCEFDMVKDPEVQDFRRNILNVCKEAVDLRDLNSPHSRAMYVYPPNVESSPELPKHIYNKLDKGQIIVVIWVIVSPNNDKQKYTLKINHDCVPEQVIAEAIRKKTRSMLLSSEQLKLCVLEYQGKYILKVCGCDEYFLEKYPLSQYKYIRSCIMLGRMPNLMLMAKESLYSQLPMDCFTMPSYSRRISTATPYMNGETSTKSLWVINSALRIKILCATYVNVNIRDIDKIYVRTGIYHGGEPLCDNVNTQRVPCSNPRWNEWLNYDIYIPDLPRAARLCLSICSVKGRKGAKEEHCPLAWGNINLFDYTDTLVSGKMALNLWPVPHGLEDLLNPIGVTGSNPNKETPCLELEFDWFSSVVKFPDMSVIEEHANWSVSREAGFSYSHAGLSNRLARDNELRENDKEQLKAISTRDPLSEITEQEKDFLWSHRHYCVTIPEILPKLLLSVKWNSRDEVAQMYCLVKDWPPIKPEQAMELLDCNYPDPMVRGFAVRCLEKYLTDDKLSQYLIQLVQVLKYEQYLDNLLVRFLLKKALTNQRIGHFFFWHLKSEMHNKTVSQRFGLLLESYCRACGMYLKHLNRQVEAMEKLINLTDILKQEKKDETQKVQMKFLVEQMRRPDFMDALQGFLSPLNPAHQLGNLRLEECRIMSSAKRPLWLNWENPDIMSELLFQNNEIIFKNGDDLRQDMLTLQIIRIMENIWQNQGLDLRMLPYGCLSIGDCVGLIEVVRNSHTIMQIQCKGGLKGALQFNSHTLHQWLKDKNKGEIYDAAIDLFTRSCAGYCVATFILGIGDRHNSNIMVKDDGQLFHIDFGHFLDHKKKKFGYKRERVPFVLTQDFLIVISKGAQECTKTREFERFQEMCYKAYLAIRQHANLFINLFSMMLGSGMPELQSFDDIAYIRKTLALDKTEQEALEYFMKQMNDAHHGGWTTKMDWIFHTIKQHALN
# PI3Ka, sequence (P27986 whole entry partner): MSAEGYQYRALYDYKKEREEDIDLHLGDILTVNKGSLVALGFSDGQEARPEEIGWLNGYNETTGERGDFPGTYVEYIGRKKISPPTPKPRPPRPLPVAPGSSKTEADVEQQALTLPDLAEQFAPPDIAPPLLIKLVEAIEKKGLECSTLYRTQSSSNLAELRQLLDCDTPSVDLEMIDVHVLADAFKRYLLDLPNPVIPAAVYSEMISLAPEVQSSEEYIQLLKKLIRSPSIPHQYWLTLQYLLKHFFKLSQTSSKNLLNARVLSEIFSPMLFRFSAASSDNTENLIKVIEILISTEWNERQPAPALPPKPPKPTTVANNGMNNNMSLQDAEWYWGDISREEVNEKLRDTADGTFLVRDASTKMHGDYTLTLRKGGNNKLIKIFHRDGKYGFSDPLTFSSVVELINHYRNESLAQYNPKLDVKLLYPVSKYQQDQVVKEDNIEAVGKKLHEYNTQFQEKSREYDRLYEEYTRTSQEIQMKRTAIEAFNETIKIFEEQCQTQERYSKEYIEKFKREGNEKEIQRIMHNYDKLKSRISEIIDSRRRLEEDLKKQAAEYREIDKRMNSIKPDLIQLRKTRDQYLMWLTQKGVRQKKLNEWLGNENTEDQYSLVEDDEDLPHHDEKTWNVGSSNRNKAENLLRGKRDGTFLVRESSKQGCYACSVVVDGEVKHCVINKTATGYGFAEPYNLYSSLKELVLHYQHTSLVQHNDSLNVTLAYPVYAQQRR
PI3Ka IC50 (nM) (PI3Ka),inhibition at 0.1 µM (PI3Ka) [%],IC50 (DNA-PK) [nM],inhibition at 0.1 µM (DNA-PK) [%],IC50 (EGFR) [nM],inhibition at 0.1 µM (EGFR) [%],½ life minutes (MLM) [2],Compound,½ life minutes (HLM) [1],IC50 (PI3Ka) [nM]
++++ (value is 2 nM or less),> 90,< 2,> 90,> 200,< 10,++++ (value is greater than 60 minutes),"C[C@H](Nc1c(C#N)cnc2ccc(-c3cnc(Cl)c(NS(C)(=O)=O)c3)cc12)c1ccccc1 [Compound 48S, N-(2-chloro-5-(3-cyano-4-((1S-phenylethyl)amino)quinolin-6-yl)pyridin-3-yl)methanesulfonamide]",++++ (value is greater than 60 minutes),
,> 90,,> 90,2 to 20,> 90,++++ (value is greater than 60 minutes),"C[C@@H](Nc1c(C#N)cnc2ccc(-c3cnc(Cl)c(NS(C)(=O)=O)c3)cc12)c1ccccc1 [Compound 48R, N-(2-chloro-5-(3-cyano-4-((1R-phenylethyl)amino)quinolin-6-yl)pyridin-3-yl)methanesulfonamide]",+++ (value is greater than 30 minutes and less than or equal to 60 minutes),
++++ (value is 2 nM or less),> 90,< 2,> 90,> 200,< 10,++++ (value is greater than 60 minutes),"C[C@H](Nc1ncnc2ccc(-c3cnc(Cl)c(NS(C)(=O)=O)c3)cc12)c1ccc(F)cc1 [Compound 111S, N-[2-chloro-5-[4-[[(1S)-1-(4-fluorophenyl)ethyl]amino]quinazolin-6-yl]-3-pyridyl]methanesulfonamide]",++++ (value is greater than 60 minutes),

# More lines, now with the values behind:
Compound,PI3Ka IC50 (nM) (PI3Ka),inhibition at 0.1 µM (PI3Ka) [%],IC50 (DNA-PK) [nM],inhibition at 0.1 µM (DNA-PK) [%],IC50 (EGFR) [nM],inhibition at 0.1 µM (EGFR) [%],½ life minutes (MLM) [2],½ life minutes (HLM) [1],IC50 (PI3Ka) [nM]
"CC(Nc1c(C#N)cnc2ccc(-c3cnc(Cl)c(NS(C)(=O)=O)c3)cc12)c1ccccc1 (stereo not drawn) [Compound 48, N-[2-chloro-5-[3-cyano-4-(1-phenylethylamino)-6-quinolyl]-3-pyridyl]methanesulfonamide]",,> 90,,> 90,,80 to 90,++++ (value is greater than 60 minutes),++++ (value is greater than 60 minutes),
"C[C@H](Nc1c(C#N)cnc2ccc(-c3cnc(Cl)c(NS(C)(=O)=O)c3)cc12)c1ccc(F)cc1 [Compound 97S, N-(2-chloro-5-(3-cyano-4-((1S-(4-fluorophenyl)ethyl)amino)quinolin-6-yl)pyridin-3-yl)methanesulfonamide]",,> 90,< 2,> 90,> 200,< 10,++++ (value is greater than 60 minutes),++++ (value is greater than 60 minutes),< 2
"CS(=O)(=O)Nc1cc(-c2ccc3ncc(C#N)c(NC4(c5ccccc5)CC4)c3c2)cnc1Cl [Compound 106, N-[2-chloro-5-[3-cyano-4-[(1-phenylcyclopropyl)amino]-6-quinolyl]-3-pyridyl]methanesulfonamide]",,,,> 90,,10 to 80,+++ (value is greater than 30 minutes and less than or equal to 60 minutes),++++ (value is greater than 60 minutes),
"CC(Nc1ncnc2ccc(-c3cnc(N)nc3)cc12)c1ccc(F)cc1 (stereo not drawn) [Compound 121, 6-(2-aminopyrimidin-5-yl)-N-(1-(4-fluorophenyl)ethyl)quinazolin-4-amine]",+ (value is greater than 200 nM),10 to 80,> 200,10 to 80,2 to 20,80 to 90,++++ (value is greater than 60 minutes),++++ (value is greater than 60 minutes),
"C[C@@H](Nc1c(C#N)cnc2ccc(-c3cnc(Cl)c(NS(C)(=O)=O)c3)cc12)c1ccc(F)cc1 [Compound 97R, N-[2-chloro-5-[3-cyano-4-[[(1R)-1-(4-fluorophenyl)ethyl]amino]-6-quinolyl]-3-pyridyl]methanesulfonamide]",,,,> 90,,10 to 80,++++ (value is greater than 60 minutes),++++ (value is greater than 60 minutes),
